This note sets out measurements from US10604502B2, “Substituted 5-cyanoindole compounds and uses thereof” (Novartis AG, priority 2017, dated 2020).

The test system of the assay is CD86 mRNA expression in MV4-11 cells. Description: CD86 mRNA expression assay (qPCR assay) in MV4-11 cells. The class given is cell-based. The note with it: Homo sapiens, 24 hours treatment, CD86 mRNA normalized against ACTB, read-out: CD86 induction qPCR in MV4-11 AC50. How it is done: MV4-11 cells were treated with representative compound of the present invention and RNA was extracted, followed by reverse transcription and Real-Time PCR. […] The data were used for dose response curve fitting in GraphPad Prism to calculate the AC50 of each compound. AC50 of CD86 mRNA expression activation after treatment of representative compounds of present invention will reflect the inhibition of LSD1 activity.
As to `N#Cc1cc2c(-c3cncc(N)c3Cl)cn([C@H]3CC[C@H](O)CC3)c2cc1Cl` [Example 7, 3-(5-amino-4-chloropyridin-3-yl)-6-chloro-1-((1R,4R)-4-hydroxycyclohexyl)-1H-indole-5-carbonitrile], the AC50 (commonly the concentration at which the activity in the assay is half-maximal) is 569 nM. On to `Cc1cc2c(cc1C#N)c(-c1cncc(N)c1Cl)cn2[C@H]1CC[C@H](O)CC1` [Example 1, 3-(5-amino-4-chloropyridin-3-yl)-1-((1R,4R)-4-hydroxycyclohexyl)-6-methyl-1H-indole-5-carbonitrile], for which the AC50 amounted to 98 nM. To `Cc1cc2c(cc1C#N)c(-c1cncc(N)c1Cl)cn2-c1ccc(S(C)(=O)=O)cc1` [Example 77, 3-(5-amino-4-chloropyridin-3-yl)-6-methyl-1-(4-(methylsulfonyl)phenyl)-1H-indole-5-carbonitrile] belongs 7 nM; to `Cc1cc2c(cc1C#N)c(-c1cncc(N)c1Cl)cn2[C@H]1CC[C@H](S(C)(=O)=O)CC1` [Example 47, 3-(5-amino-4-chloropyridin-3-yl)-6-methyl-1-((1R,4R)-4-(methylsulfonyl)cyclohexyl)-1H-indole-5-carbonitrile], 202 nM. To `Cc1cc2c(cc1C#N)c(-c1cncc(N)c1Cl)cn2C1CCC(C(N)=O)C1` (stereo not shown) [Example 68, 3(3-(5-amino-4-chloropyridin-3-yl)-5-cyano-6-methyl-1H-indol-1-yl)cyclopentane-1-carboxamide] belongs 464 nM. To `Cc1cc2c(cc1C#N)c(-c1cncc(N)c1Cl)cn2-c1ccc(=O)n(C)c1` [Example 84, 3-(5-amino-4-chloropyridin-3-yl)-6-methyl-1-(1-methyl-6-oxo-1,6-dihydropyridin-3-yl)-1H-indole-5-carbonitrile] belongs 1490 nM. Regarding `Cc1cc2c(cc1C#N)c(-c1cncc(N)c1F)cn2[C@H]1CC[C@H](O)CC1` [Example 5, 3-(5-amino-4-fluoropyridin-3-yl)-1-((1R,4R)-4-hydroxycyclohexyl)-6-methyl-1H-indole-5-carbonitrile], the AC50 stood at 3620 nM.
